Patent US9567586B2, “EpCAM aptamer for detection of cancer stem cells” (DEAKIN UNIVERSITY, priority 2012, dated 2017)

Test system: HEK293T sphere that does not express EpCAM
Assay: Penetration of HEK293T sphere (specificity)
Type: cell-based, human
Settings: 4 h incubation, further 24 h culture
Experimental: After four hour incubation with EpCAM antibody or aptamer 23 separately, the tumor spheres were washed twice with PBS and were cultured for a further 24 h followed by confocal microscopy. Panel A: fluorescence image for aptamer 23. Panel B: phase contrast for tumor sphere. Panel C: fluorescence image for anti-EpCAM antibody. Panel D: phase contrast image for tumour sphere.
To study the ability of EpCAM aptamer or antibody to penetrate tumors, the inventors used a three-dimensional in vitro tumor sphere model. […] After incubating for the indicated time, the spheres were washed twice with PBS and imaged via fluorescence confocal microscopy. A phase contrast image of the sphere was also taken for each sample. […] A retention study was performed whereby the tumour spheres were incubated with EpCAM antibody, aptamer-23 or control aptamer for 4 h, after washing with PBS twice, the tumor spheres were incubated with the culture medium for a further 24 h followed by confocal microscopy.

## 5′-ACGUAUCCCUUUUCGCGUA-3′ (RNA aptamer, fluorescent dye conjugate used, modifications not given here, further chemistry not given here) [compound 23]
  binding to HEK293T sphere: minimal binding
